Experiments:
[1] = system: chemically regulatable chimeric genes coding for GUS, AHAS or BT; experiment: Primer extension assay for mRNA of chemically regulatable chimeric genes; format: in vivo; details: callus or regenerated plant material from transgenic plants; level proportional to amount of regulator applied
Experimental: 50 g of total RNA is lyophilized in a 500 l Eppendorf tube. The RNA is resuspended in 30 l of radiolabeled probe solution and heated to 70′ C. for 10 minutes. The tube is slowly cooled to 37° C. and allowed to incubate overnight. Without removing the tube from the 37° C. water bath, 2 l of 10×reverse-transcriptase buffer (500 mM Tris-HCl, pH 7.5, 400 mM KCl, 30 mM MgCl2), 1 l 5 mg/ml bovine serum albumin, 5 l 100 mM dithiothreitol, 5 l 10×dNTPs (10 mM of each dNTP in H2O), 3 l H 20, 2 l RNasin (80 units), and 2 l reverse transcriptase (400 units) are added and the reaction is incubated at 37° C. for 30 minutes. To stop the reaction, 5 l of 3 M sodium acetate, pH 5, and 150 l absolute ethanol are added. The tube is left at −20° C. for 30 minutes, the precipitate is collected by centrifugation, washed with 80% ethanol and allowed to air-dry. The precipitate is resuspended in 10-20 l of loading dye (90% formamide, 0.05% bromophenol blue, 0.05% xylene cyanol, 1 mM EDTA) and the extension products are separated on a 6% sequencing gel (Maniatis, T. et al., supra). Extension products are visualized by autoradiography.
Plant materials induced and harvested as in Examples 140 to 142 are assayed for the induction of mRNA species by the isolation of RNA and the primer extension assay as described in Example 6.
The level of mRNA is proportional to the amount of regulator applied.

[2] = system: cucumber chitinase protein; experiment: Cucumber chitinase ELISA in transgenic plants carrying cucumber chitinase genomic constructs after leaf treatment; format: in vivo, tobacco; set-up: key: —: Indicates that sample has no detectable level of chitinase protein
Experimental: Once the transgenic plants are transferred to soil, they are grown 4-5 weeks before treatment. The following solutions are applied to the leaves with sterile paintbrushes:
3. Methyl benzo-1,2,3-thiadiazole-7-carboxylate. The solution is made by resuspending a wettable powder containing a formulation of the chemical with 25% active ingredient in sterile water at a concentration of 1 mg/ml.
4. Methyl 2,6-dichloroisonicotinate, prepared as above. Alternatively, 30 ul of 10 mM sodium phosphate buffer, pH 7.0, or 30 ul of the same buffer containing tobacco mosaic virus (50-100 pfu/30 ul) is applied to the leaves which have been sprinkled with carborundum. The buffers are distributed over the whole treated leaf by gentle rubbing.
The plants are allowed to continue to grow for seven days. The treated leaves are then harvested, frozen in liquid nitrogen and stored at −80° C. until they are assayed.
Frozen leaf tissue is ground in a mortar with a pestle in the presence of liquid nitrogen to produce a fine powder. 0.33 g of each tissue sample is added to 1 ml extraction buffer (50 mM Tris-HCl, pH 8.5, 0.2M 2-mercaptoethanol, 2 mM phenyl methyl sulfonyl fluoride, 2 mM benzamidine, 10 mM epsilon-aminocaproic acid, 1 mM leueptine) and the sample homogenized for one minute with an Ultra Turrax Mixer (shaft #S25N-8G, Tekmar Co. Cincinnati, Ohio). The samples are then centrifuged at 48,000×g for fifteen minutes at 4° C. and the supernatant removed from the pelleted material. The extracts are diluted at least 1:50 in ELISA diluent (101 mM sodium phosphate, pH 7.4, 140 mM sodium chloride, 0.05% Tween 20, 0.02% sodium azide, 1% BSA).
A microtiter plate is coated with monoclonal antibody specific to the cucumber chitinase protein at 2 ug/ml in borate-buffered saline (100 mM boric acid, 25mM sodium borate, 75 mM sodium chloride; pH 8.5) using 50 ul per well. The plate is incubated overnight at 4° C. The plate is washed with ELISA wash buffer (10 mM Tris-HCl, pH 8.0, 0.05% Tween 20, 3 mM sodium azide) and BSA blocking solution (10 mM sodium phosphate, pH 7.4, 140 mM sodium chloride, 0.02% sodium azide, 1% BSA) is added to completely cover each well. Incubation is for at least 30 minutes at room temperature.
The microtiter plate is washed with ELISA wash buffer and 50 ul of extract is added to the appropriate well. 50 ul of each of 10 chitinase protein standards (ranging from 0 ng/ml to 31.64 ng/ml) was also added to the appropriate well and the plate is incubated for two hours at 4° C. The plate is washed with ELISA wash buffer and 50 ul of rabbit polyclonal antibody to the cucumber chitainase protein (diluted 1:15,000 in ELISA diluent) is added to the well and incubated for one hour at 37° C. After washing with ELISA wash buffer, 50 ul of goat anti-rabbit conjugated to alkaline phosphatase (1:500 in ELISA diluent) is added to each well and incubated at 37° C. for one hour. The plate is then washed and 50 ul alkaline phosphatase substrate solution (0.6 mg/ml p-nitrophenyl phosphate in 0.5 mM magnesium chloride and 10% diethanolamine) is added to each well. After a 30 minute incubation at room temperature, 50 ul of 3N sodium hydroxide is added to each well to stop the reaction.
The plate is read at 405 nm and 492 nm on an HP Genenchem ELISA plate reader. The output values are expressed as A(405 nm)-A(492 nm)−0.092 to allow for correction of p-nitrophenyl phosphate as substrate. The chitinase standards for each plate are graphed logarithmically. The amount of chitinase protein in each sample is determined from the standard curve. If the amount of chitinase in any sample is close to the upper limit of the curve, the sample is assayed again at a greater dilution. Final results are expressed in the table below in ug chitinase per gram tissue.

With `COC(=O)c1cccc2nnsc12` [Methyl benzo-1,2,3-thiadiazole-7-carboxylate] as the compound, how does the “level of mRNA of the chimeric gene (GUS, AHAS or BT primer), primer extension assay” value [1] read?
Its value is “elevated levels of mRNA”.

What about the “ELISA ASSAY RESULTS (ug chitinase/g tissue)” value (from here on “ELISA ASSAY RESULTS”) ([2]; line Bam-1 (2001/BamChit), leaves harvested after seven days, water 0.066, buffer —) of the same compound?
Its value is 3.000 ug chitinase/g tissue.

What about the “ELISA ASSAY RESULTS” value ([2]; line Bam-3 (2001/BamChit), seven days, water —, buffer —) of the same compound?
Its value is 0.504 ug chitinase/g tissue.

And the “ELISA ASSAY RESULTS” value ([2]; line Bam-4 (2001/BamChit), seven days, water —, buffer —)?
The value was “—”.

And the “ELISA ASSAY RESULTS” value ([2]; line Bam-8 (2001/BamChit), seven days, water —, buffer —)?
The value was “—”.

What about the “ELISA ASSAY RESULTS” value ([2]; line Bam-9 (2001/BamChit), seven days, water —, buffer —) of the same compound?
The value was 33.885 ug chitinase/g tissue.

And the “ELISA ASSAY RESULTS” value ([2]; line Bam-10 (2001/BamChit), seven days, water 0.059, buffer 0.084)?
The value was 25.182 ug chitinase/g tissue.

What about the “ELISA ASSAY RESULTS” value ([2]; line Bam-12 (2001/BamChit), seven days, water —, buffer —) of the same compound?
The value was 1.349 ug chitinase/g tissue.

What about the “ELISA ASSAY RESULTS” value ([2]; line Bam-14 (2001/BamChit), seven days, water —, buffer —) of the same compound?
The value was 0.541 ug chitinase/g tissue.

What about the “ELISA ASSAY RESULTS” value ([2]; line Bam-15 (2001/BamChit), seven days, water —, buffer —) of the same compound?
Its value is 3.366 ug chitinase/g tissue.

What about the “ELISA ASSAY RESULTS” value ([2]; line Bam-16 (2001/BamChit), seven days, water —, buffer —) of the same compound?
Its value is 18.849 ug chitinase/g tissue.

What about the “ELISA ASSAY RESULTS” value ([2]; line Bam-17 (2001/BamChit), seven days, water —, buffer —) of the same compound?
The value was 2.997 ug chitinase/g tissue.

And the “ELISA ASSAY RESULTS” value ([2]; line Bam-19 (2001/BamChit), seven days, water —, buffer —)?
The value was 0.998 ug chitinase/g tissue.

And the “ELISA ASSAY RESULTS” value ([2]; line Bam-21 (2001/BamChit), seven days, water —, buffer —)?
Its value is “—”.

What about the “ELISA ASSAY RESULTS” value ([2]; line Bam-23 (2001/BamChit), seven days, water —, buffer —) of the same compound?
The value was 0.782 ug chitinase/g tissue.

And the “ELISA ASSAY RESULTS” value ([2]; line Bam-24 (2001/BamChit), seven days, water —, buffer —)?
Its value is 0.88 ug chitinase/g tissue.

What about the “ELISA ASSAY RESULTS” value ([2]; line Bam-25 (2001/BamChit), seven days, water —, buffer —) of the same compound?
The value was 18.145 ug chitinase/g tissue.

And the “ELISA ASSAY RESULTS” value ([2]; line Bam-26 (2001/BamChit), seven days, water —, buffer —)?
The value was 0.676 ug chitinase/g tissue.

And the “ELISA ASSAY RESULTS” value ([2]; line Nco-2 (2001/NcoChit), seven days, water —, buffer —)?
The value was “—”.

And the “ELISA ASSAY RESULTS” value ([2]; line Nco-3 (2001/NcoChit), seven days, water —, buffer —)?
Its value is “—”.

What about the “ELISA ASSAY RESULTS” value ([2]; line Nco-5 (2001/NcoChit), seven days, water —, buffer —) of the same compound?
The value was “—”.

And the “ELISA ASSAY RESULTS” value ([2]; line Nco-8 (2001/NcoChit), seven days, water —, buffer —)?
Its value is “—”.

What about the “ELISA ASSAY RESULTS” value ([2]; line Nco-9 (2001/NcoChit), seven days, water —, buffer —) of the same compound?
The value was “—”.

What about the “ELISA ASSAY RESULTS” value ([2]; line Nco-10 (2001/NcoChit), seven days, water —, buffer —) of the same compound?
The value was 0.047 ug chitinase/g tissue.

What about the “ELISA ASSAY RESULTS” value ([2]; line Nco-11 (2001/NcoChit), seven days, water —, buffer —) of the same compound?
Its value is “—”.

What about the “ELISA ASSAY RESULTS” value ([2]; line Nco-15 (2001/NcoChit), seven days, water —, buffer —) of the same compound?
The value was “—”.

And the “ELISA ASSAY RESULTS” value ([2]; line Nco-16 (2001/NcoChit), seven days, water 0.555, buffer 0.566)?
Its value is 0.784 ug chitinase/g tissue.

What about the “ELISA ASSAY RESULTS” value ([2]; line Nco-17 (2001/NcoChit), seven days, water —, buffer —) of the same compound?
The value was “—”.

What about the “ELISA ASSAY RESULTS” value ([2]; line Sal-2 (2001/SalChit), seven days, water —, buffer —) of the same compound?
Its value is 0.117 ug chitinase/g tissue.

What about the “ELISA ASSAY RESULTS” value ([2]; line Sal-3 (2001/SalChit), seven days, water —, buffer —) of the same compound?
Its value is 0.060 ug chitinase/g tissue.

And the “ELISA ASSAY RESULTS” value ([2]; line Sal-4 (2001/SalChit), seven days, water —, buffer —)?
The value was 0.537 ug chitinase/g tissue.

What about the “ELISA ASSAY RESULTS” value ([2]; line Sal-5 (2001/SalChit), seven days, water —, buffer —) of the same compound?
The value was 0.229 ug chitinase/g tissue.

And the “ELISA ASSAY RESULTS” value ([2]; line Sal-7 (2001/SalChit), seven days, water —, buffer —)?
Its value is 0.377 ug chitinase/g tissue.

And the “ELISA ASSAY RESULTS” value ([2]; line Sal-8 (2001/SalChit), seven days, water —, buffer —)?
The value was “—”.

And the “ELISA ASSAY RESULTS” value ([2]; line Sal-9 (2001/SalChit), seven days, water —, buffer —)?
The value was 0.553 ug chitinase/g tissue.

And the “ELISA ASSAY RESULTS” value ([2]; line Sal-11 (2001/SalChit), seven days, water —, buffer —)?
Its value is “—”.

And the “ELISA ASSAY RESULTS” value ([2]; line Sal-12 (2001/SalChit), seven days, water —, buffer —)?
The value was “—”.

And the “ELISA ASSAY RESULTS” value ([2]; line Sal-13 (2001/SalChit), seven days, water —, buffer —)?
Its value is “—”.

And the “ELISA ASSAY RESULTS” value ([2]; line Sal-14 (2001/SalChit), seven days, water —, buffer —)?
Its value is “—”.

What about the “ELISA ASSAY RESULTS” value ([2]; line Sal-15 (2001/SalChit), seven days, water —, buffer —) of the same compound?
Its value is 0.038 ug chitinase/g tissue.
